What was measured:
Akt = experiment: Immunoblotting for phosphorylated Akt in CPCs; assay type: cell-based, rat; settings: recombinant human Insulin, 30 min incubation
Description: (§1) Cells were lysed in a buffer that consisted of 0.1% sodium dodecyl sulphate (SDS) and complete protease inhibitor cocktail (Roche, Basel, Switzerland) in PBS. Protein concentration was determined by the DC protein assay (Biorad, Hercules, CA). Twenty μg of protein was separated by SDS-PAGE. After electrophoresis, the gels were electroblotted to polyvinylidene difluoride (PVDF) membranes. All electrophoresis and electroblotting used Novex reagents and systems (Invitrogen, Carlsbad, Calif.). The blots were blocked for 1 hr at RT in 5% nonfat dry milk in PBS with 0.1% Tween 20 (PBST), washed 3×5 min in PBST, and incubated in primary antibodies in PBST with 5% BSA overnight at 4° C. After 3×5 min washes in PBST, the blots were incubated in secondary antibody conjugated to horseradish peroxidase conjugate (1:2000, Sigma) in PBST for 1 hr at RT. Unbound secondary antibody was removed and positive bands were detected with a chemiluminescent reaction. The primary antibodies for immunoblotting were Ki67 (clone SP6, 1:200, Abcam, Cambridge, MA); p-STAT3 (Tyr705, 1:1000), total STAT3 (1:1000), p-Akt (Ser 473, 1:1000)(Cell signaling); and β-actin (1:5000, Sigma).

adult rat CPCs [1] = experiment: CPC protection during hypoxia (1% oxygen, 48 hrs); assay type: cell-based; settings: for protection of CPCs against 48 hr of hypoxia: 1 ng/ml (each) in SFM; for CPC number after hypoxia: 30 ng/ml alone, control SFM with 1% BSA 9004 cells, mean±SD; for CdM-mediated protection of CPCs under hypoxic conditions: STAT3 inhibitor 10 μM added to CdM
Description: (§2) Adult rat CPCs and cardiac fibroblasts were plated at 500 cells/cm^2 and cultured in their respective growth mediums. Three days after plating, the medium was removed, the wells were washed twice with PBS, and the cells were then exposed to CdM or to fresh serum-free medium (Alpha-MEM). For time course proliferation studies, CdM and serum-free medium were changed every 2 days. In signal transduction inhibitor studies, the following pharmacological inhibitors were used: AG490, inhibitor of Jak2/STAT3 pathway; Stattic, inhibitor of STAT3; LY294002, inhibitor of phosphatidylinositol 3-kinase (PI3K)/Akt pathway; and PD98059, inhibitor of extracellular signal-regulated kinase (ERK). All of the inhibitors were purchased from Calbiochem (Darmstadt, Germany) and were dissolved in dimethyl sulfoxide (DMSO). CPCs were cultured in CdM with the inhibitors or with the equivalent volume of DMSO as a control for 48 hrs. In cell protection studies, 3 days after plating, medium was replaced with either the CdM or serum-free medium and the cells were exposed to hypoxia in a specialized incubator (1% oxygen) for 48 hrs. The hypoxia incubator was a model that measured both CO2 and O2 (Thermo Electron, Forma Series II, model 3130). Oxygen was maintained at 1% by the injection of nitrogen gas and was monitored continuously.
Cell numbers were quantified by the fluorescent labeling of nucleic acids (CyQuant dye; Molecular Probes, Carlsbad, CA) and with a microplate fluorescence reader (FL×800; Bio-Tek Instruments Inc., Winooski, VT) set to 480 nm excitation and 520 nm emission. Each experiment was repeated a minimum of 3 times.

adult rat CPCs [2] = experiment: Signal transduction inhibitor studies, CPCs cultured in CdM; assay type: cell-based; settings: for cell number ratio to control cell number: CPCs in MSC CdM, 48 hrs, control CdM+DMSO = 100%
Description: as §2, with “continuously. Cell numbers were quantified by the fluorescent labeling of nucleic acids (CyQuant dye; Molecular Probes, Carlsbad, CA) and with a microplate fluorescence reader (FL×800; Bio-Tek Instruments Inc., Winooski, VT) set to 480 nm excitation and 520 nm emission. Each experiment was repeated a minimum of 3 times.” for “continuously.”

STAT3 = experiment: Immunoblotting for phosphorylated STAT3 in CPCs; assay type: cell-based, rat; settings: 3 ng/ml, 30 min, SFM containing 1% BSA
Description: as §1

canonical Wnt pathway = experiment: Canonical Wnt pathway signaling in EPDCs (p-GSK3β, nuclear β-catenin); assay type: cell-based, rat
EPDCs [3] = experiment: Ex vivo adhesion assay of EPDCs to fibronectin; assay type: cell-based; settings: 40 ng/ml
EPDCs [4] = experiment: Western blots for differentiation and adhesion/migration markers in EPDCs; assay type: cell-based; settings: exposure to CTGF-D4
EPDCs [5] = experiment: EPDC protection by CTGF-D4 under hypoxia (1% oxygen, 48 hr); assay type: cell-based, rat; settings: blocker added

Molecule: Insulin: recombinant human Insulin, dimer of A-chain and B-chain
- p-Akt in CPCs (Akt): induced p-Akt in a dose-responsive manner
- protection of CPCs against 48 hr of hypoxia (adult rat CPCs [1]): did not protect CPCs
- CPC number after hypoxia (adult rat CPCs [1]): 13,507±1,473 cells
- CPC survival and proliferation (adult rat CPCs [1]; recombinant human Insulin): increased also CPC survival and proliferation

Molecule: IGF-1: human Insulin-like growth factor 1
- CPC number after hypoxia (adult rat CPCs [1]): 14,894±559 cells

Molecule: O=[N+]([O-])c1ccc2c(c1)S(=O)(=O)C=C2 [Stattic, reference compound]
- growth of CPCs in p75MSC CdM (adult rat CPCs [2]; 10 μM, vs DMSO vehicle, day 2 and 4): abolished
- CdM-mediated protection of CPCs under hypoxic conditions (adult rat CPCs [1]): abolished CdM-mediated protection

Molecule: COc1cccc(-c2cc(=O)c3ccccc3o2)c1N [PD98059]
- CPC proliferation in CdM (adult rat CPCs [2]; ERK inhibitor): did not diminish CPC proliferation

Molecule: N#C/C(=C/c1ccc(O)c(O)c1)C(=O)NCc1ccccc1 [AG490]
- cell number ratio to control cell number (adult rat CPCs [2]; 1 μM): 96.3±0.9%
- cell number ratio to control cell number (adult rat CPCs [2]; 5 μM): 89.5±0.9%
- CPC number (adult rat CPCs [2]; 10 μM, CPCs in CdM from p75MSCs or fibroblasts): inhibitory effect
- cell number ratio to control cell number (adult rat CPCs [2]; 10 μM): 43.4±2.4%
- CdM-mediated protection of CPCs under hypoxic conditions (adult rat CPCs [1]): abolished CdM-mediated protection

B1: human CTGF: connective tissue growth factor, full-length polypeptide SEQ ID NO: 1 (protein, listed as Homo sapiens)
chain: MTAASMGPVRVAFVVLLALCSRPAVGQNCSGPCRCPDEPAPRCPAGVSLVLDGCGCCRVCAKQLGELCTERDPCDPHKGLFCDFGSPANRKIGVCTAKDGAPCIFGGTVYRSGESFQSSCKYQCTCLDGAVGCMPLCSMDVRLPSPDCPFPRRVKLPGKCCEEWVCDEPKDQTVVGPALAAYRLEDTFGPDPTMIRANCLVQTTEWSACSKTCGMGISTRVTNDNASCRLEKQSRLCMVRPCEADLEENIKKGKKCIRTPKISKPIKFELSGCTSMKTYRAKFCGVCTDGRCCTPHRTTTLPVEFKCPDGEVMKKNMMFIKTCACHYNCPGDNDIFESLYYRKMYGDMA
- p-STAT3 in CPCs (STAT3): significantly induced p-STAT3

B2: CTGF-D4: recombinant human C-terminal (domain 4) CTGF peptide, SEQ ID NO: 2 (protein, listed as Homo sapiens)
chain: MGKKCIRTPKISKPIKFELSGCTSMKTYRAKFCGVCTDGRCCTPHRTTTLPVEFKCPDGEVMKKNMMFIKTCACHYNCPGDNDIFESLYYRKMYGDMA
- protection of CPCs against 48 hr of hypoxia (adult rat CPCs [1]): did not protect CPCs
- signaling through the canonical Wnt pathway (p-GSK3β, nuclear β-catenin) (canonical Wnt pathway): promoted signaling through the canonical Wnt pathway
- adhesion of EPDCs to fibronectin (EPDCs [3]): promoted adhesion of EPDCs to fibronectin
- EMT-like differentiation (SMA, CD90, ETrB protein levels) (EPDCs [4]): promoted EMT-like differentiation
- levels of Von Willebrand Factor (EPDCs [4]): did not seem to be affected

B3: Dkk-1: a secreted inhibitor of Lrp6 (protein, UniProt O94907 32-266, looked up)
Dickkopf-related protein 1: TLNSVLNSNAIKNLPPPLGGAAGHPGSAVSAAPGILYPGGNKYQTIDNYQPYPCAEDEECGTDEYCASPTRGGDAGVQICLACRKRRKRCMRHAMCCPGNYCKNGICVSSDQNHFRGEIEETITESFGNDHSTLDGYSRRTTLSSKMYHTKGQEGSVCLRSSDCASGLCCARHFWSKICKPVLKEGQVCTKHRRKGSHGLEIFQRCYCGEGLSCRIQKDHHQASNSSRLHTCQRH
- protection of EPDCs conferred by CTGF-D4 (EPDCs [5]): significantly reduced the protection

Reference: patent US12460184B2, “Cell primed with CTGF-D4 and insulin or IGF-1 and use in methods for cardiac tissue repair” (University of Vermont and State Agriculture College, priority 2013, dated 2025)
